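Compound exposure: 48 hours, 5 concentrations, 96-well plates. TGI is the concentration that stops growth completely.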
How the values were obtained:
Experiment in all cases: inhibition of tumour cell growth, NCI panel, 48 h
[1] = system: 786-0 renal
[2] = system: A498 renal
[3] = system: A549 NSCLC
[4] = system: BT-549 breast
[5] = system: CAKI-1 renal
[6] = system: CCRF-CEM leukemia
[7] = system: COLO 205 colon
[8] = system: DU-145 prostate
[9] = system: EKVX NSCLC
[10] = system: HCC-2998 colon
[11] = system: HCT-116 colon
[12] = system: HCT-15 colon
[13] = system: HL-60(TB) leukemia
[14] = system: HOP-62 NSCLC
[15] = system: HOP-92 NSCLC
[16] = system: HS 578T breast
[17] = system: HT29 colon
[18] = system: IGROV1 ovarian
[19] = system: KM12 colon
[20] = system: LOX IMVI melanoma
[21] = system: M14 melanoma
[22] = system: MALME-3M melanoma
[23] = system: MCF7 breast
[24] = system: MDA-MB-231 breast
[25] = system: MDA-MB-435
[26] = system: MDA-N
[27] = system: MOLT-4 leukemia
[28] = system: NCI-H226 lung
[29] = system: NCI-H23 lung
[30] = system: NCI-H460 lung
[31] = system: NCI-H522 lung
[32] = system: NCI/ADR-RES ovarian
[33] = system: OVCAR-3 ovarian
[34] = system: OVCAR-4 ovarian
[35] = system: OVCAR-5 ovarian
[36] = system: OVCAR-8 ovarian
[37] = system: RPMI-8226 leukemia
[38] = system: RXF 393 renal
[39] = system: SF-268 CNS
[40] = system: SF-295 CNS
[41] = system: SF-539 CNS
[42] = system: SK-MEL-2 melanoma
[43] = system: SK-MEL-28 melanoma
[44] = system: SK-MEL-5 melanoma
[45] = system: SK-OV-3 ovarian
[46] = system: SN12C renal
[47] = system: SNB-19 CNS
[48] = system: SW-620 colon
[49] = system: T-47D breast
[50] = system: U251 CNS
[51] = system: UACC-257 melanoma
[52] = system: UACC-62 melanoma
[53] = system: UO-31 renal
[54] = system: ACHN renal
[55] = system: K-562 leukemia
[56] = system: PC-3 prostate
[57] = system: SNB-75 CNS
[58] = system: TK-10 renal

SMILES: O=C(Nc1ccc2[nH]c(C(=O)N3CC(CCl)c4ccc([N+](=O)[O-])cc43)cc2c1)c1cc2ccccc2o1 (centres undefined)
- TGI [1]: > 1100 µM
- TGI [2]: > 1100 µM
- TGI [3]: > 1100 µM
- TGI [4]: > 1100 µM
- TGI [5]: > 1100 µM
- TGI [6]: > 1100 µM
- TGI [7]: > 1100 µM
- TGI [8]: > 1100 µM
- TGI [9]: > 1100 µM
- TGI [10]: > 1100 µM
- TGI [11]: > 1100 µM
- TGI [12]: > 1100 µM
- TGI [13]: > 1.1 mM
- TGI [14]: > 1100 µM
- TGI [15]: > 1.1 mM
- TGI [16]: > 1100 µM
- TGI [17]: > 1100 µM
- TGI [18]: > 1100 µM
- TGI [19]: > 1100 µM
- TGI [20]: > 1100 µM
- TGI [21]: > 1100 µM
- TGI [22]: > 1100 µM
- TGI [23]: > 1100 µM
- TGI [24]: > 1100 µM
- TGI [25]: > 1100 µM
- TGI [26]: > 1100 µM
- TGI [27]: > 1100 µM
- TGI [28]: > 1100 µM
- TGI [29]: > 1100 µM
- TGI [30]: > 1100 µM
- TGI [31]: > 1100 µM
- TGI [32]: > 1100 µM
- TGI [33]: > 1100 µM
- TGI [34]: > 1100 µM
- TGI [35]: > 1100 µM
- TGI [36]: > 1100 µM
- TGI [37]: > 1100 µM
- TGI [38]: > 1100 µM
- TGI [39]: > 1100 µM
- TGI [40]: > 1100 µM
- TGI [41]: > 1100 µM
- TGI [42]: > 1100 µM
- TGI [43]: > 1100 µM
- TGI [44]: > 1100 µM
- TGI [45]: > 1100 µM
- TGI [46]: > 1100 µM
- TGI [47]: > 1100 µM
- TGI [48]: > 1100 µM
- TGI [49]: > 1100 µM
- TGI [50]: > 1100 µM
- TGI [51]: > 1100 µM
- TGI [52]: > 1100 µM
- TGI [53]: > 1100 µM

SMILES: COC(=O)[C@@]1(NC(=O)C(CC(=O)OC(C)(C)C)NC(=O)OC(C)(C)C)C[C@H]1C (some centres undefined)
- TGI [1]: > 100 µM
- TGI [2]: > 100 µM
- TGI [3]: > 100 µM
- TGI [54]: > 100 µM
- TGI [4]: > 100 µM
- TGI [5]: > 100 µM
- TGI [6]: > 100 µM
- TGI [7]: > 100 µM
- TGI [8]: > 100 µM
- TGI [9]: > 100 µM
- TGI [10]: > 100 µM
- TGI [11]: > 100 µM
- TGI [12]: > 100 µM
- TGI [14]: > 100 µM
- TGI [16]: > 100 µM
- TGI [17]: > 100 µM
- TGI [18]: > 100 µM
- TGI [55]: > 100 µM
- TGI [19]: > 100 µM
- TGI [20]: > 100 µM
- TGI [21]: > 100 µM
- TGI [22]: > 100 µM
- TGI [23]: > 100 µM
- TGI [24]: > 100 µM
- TGI [25]: > 100 µM
- TGI [26]: > 100 µM
- TGI [27]: > 100 µM
- TGI [28]: > 100 µM
- TGI [29]: > 100 µM
- TGI [30]: > 100 µM
- TGI [31]: > 100 µM
- TGI [32]: > 100 µM
- TGI [33]: > 100 µM
- TGI [34]: > 100 µM
- TGI [35]: > 100 µM
- TGI [36]: > 100 µM
- TGI [56]: > 100 µM
- TGI [37]: > 100 µM
- TGI [38]: > 100 µM
- TGI [39]: > 100 µM
- TGI [40]: > 100 µM
- TGI [41]: > 100 µM
- TGI [42]: > 100 µM
- TGI [43]: > 100 µM
- TGI [44]: > 100 µM
- TGI [45]: > 100 µM
- TGI [46]: > 100 µM
- TGI [47]: > 100 µM
- TGI [57]: > 100 µM
- TGI [48]: > 100 µM
- TGI [49]: > 100 µM
- TGI [58]: > 100 µM
- TGI [50]: > 100 µM
- TGI [51]: > 100 µM
- TGI [52]: > 100 µM
- TGI [53]: > 100 µM

Source: PubChem BioAssay (NCI)
